From ChEMBL document CHEMBL1909046, “DrugMatrix in vitro pharmacology data”

How the values were obtained:
[1] = target: Beta-3 adrenergic receptor (Homo sapiens, UniProt P13945); assay: DRUGMATRIX: Adrenergic beta3 radioligand binding (ligand: [125I] Cyanopindolol); type: cell membranes, HEK293, Membrane; settings: hek293; Not Active = under 50% inhibition at 10 µM
[2] = target: T1, Vasoactive intestinal polypeptide receptor 1 (Homo sapiens, UniProt P32241); type: cell membranes, Membrane; settings: ht-29; further: in other assays of this panel Not Active means under 50% inhibition at 10 µM
T1 sequence (P32241 whole entry): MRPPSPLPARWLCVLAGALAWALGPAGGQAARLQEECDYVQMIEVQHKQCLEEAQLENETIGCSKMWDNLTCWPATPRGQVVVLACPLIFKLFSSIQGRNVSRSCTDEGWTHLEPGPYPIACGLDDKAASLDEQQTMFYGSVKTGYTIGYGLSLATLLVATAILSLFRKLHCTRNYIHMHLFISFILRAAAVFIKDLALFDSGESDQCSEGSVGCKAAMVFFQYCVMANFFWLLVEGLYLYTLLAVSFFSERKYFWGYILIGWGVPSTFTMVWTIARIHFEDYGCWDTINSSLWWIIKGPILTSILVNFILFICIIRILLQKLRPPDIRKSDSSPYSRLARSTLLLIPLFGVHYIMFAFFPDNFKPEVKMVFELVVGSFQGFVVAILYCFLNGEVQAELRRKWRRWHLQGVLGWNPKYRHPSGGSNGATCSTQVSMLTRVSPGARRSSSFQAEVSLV

[3] = target: T2, C-C chemokine receptor type 4 (Homo sapiens, UniProt P51679); type: cell membranes, Membrane; settings: chem-1; further: in other assays of this panel Not Active means under 50% inhibition at 10 µM
T2 sequence (P51679 whole entry): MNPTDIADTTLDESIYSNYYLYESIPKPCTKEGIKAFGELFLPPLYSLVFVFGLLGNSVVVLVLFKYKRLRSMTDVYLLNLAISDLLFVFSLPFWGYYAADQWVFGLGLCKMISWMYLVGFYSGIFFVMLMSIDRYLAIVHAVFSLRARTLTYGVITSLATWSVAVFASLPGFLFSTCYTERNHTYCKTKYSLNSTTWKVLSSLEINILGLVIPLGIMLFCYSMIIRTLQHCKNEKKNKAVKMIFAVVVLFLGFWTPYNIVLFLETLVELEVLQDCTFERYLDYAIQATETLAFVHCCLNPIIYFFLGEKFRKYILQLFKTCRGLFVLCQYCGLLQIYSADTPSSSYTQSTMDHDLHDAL

[4] = target: T3, Cholecystokinin receptor type A (Homo sapiens, UniProt P32238); type: cell membranes, Membrane; settings: 1321-n1; further: in other assays of this panel Not Active means under 50% inhibition at 10 µM
T3 sequence (P32238 whole entry): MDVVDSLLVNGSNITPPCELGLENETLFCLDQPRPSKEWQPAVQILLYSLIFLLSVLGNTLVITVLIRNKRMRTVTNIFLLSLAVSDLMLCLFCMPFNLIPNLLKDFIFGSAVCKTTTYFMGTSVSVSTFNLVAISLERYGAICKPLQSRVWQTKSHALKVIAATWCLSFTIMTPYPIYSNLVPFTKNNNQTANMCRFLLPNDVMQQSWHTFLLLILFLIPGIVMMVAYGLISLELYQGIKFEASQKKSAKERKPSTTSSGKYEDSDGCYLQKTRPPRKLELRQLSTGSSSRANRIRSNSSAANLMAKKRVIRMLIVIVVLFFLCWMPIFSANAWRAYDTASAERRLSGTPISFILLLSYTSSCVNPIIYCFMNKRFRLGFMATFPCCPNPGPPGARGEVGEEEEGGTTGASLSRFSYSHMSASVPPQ

D(4) dopamine receptor = target: T4, D(4) dopamine receptor (Homo sapiens, UniProt P21917); assay: DRUGMATRIX: Dopamine D4.2 radioligand binding (ligand: [3H] Spiperone); type: cell membranes, CHO-K1, Membrane; settings: cho-k1; Not Active = under 50% inhibition at 10 µM
T4 sequence (P21917 whole entry): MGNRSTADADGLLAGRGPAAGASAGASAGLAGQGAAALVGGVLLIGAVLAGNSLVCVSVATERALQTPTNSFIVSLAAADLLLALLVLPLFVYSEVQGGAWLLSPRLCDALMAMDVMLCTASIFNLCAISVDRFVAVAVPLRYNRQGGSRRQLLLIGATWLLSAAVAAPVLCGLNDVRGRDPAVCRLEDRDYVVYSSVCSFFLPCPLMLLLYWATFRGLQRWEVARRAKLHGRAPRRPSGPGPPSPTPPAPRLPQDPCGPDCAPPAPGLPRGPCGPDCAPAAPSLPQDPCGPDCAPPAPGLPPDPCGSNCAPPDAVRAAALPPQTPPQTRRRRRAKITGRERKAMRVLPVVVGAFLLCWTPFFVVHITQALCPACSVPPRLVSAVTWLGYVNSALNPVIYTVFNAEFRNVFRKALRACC

[5] = DRUGMATRIX: Interleukin IL-1 radioligand binding (ligand: [125I] interleukin 1beta); type: cell membranes, Membrane; settings: nih3t3; Not Active = under 50% inhibition at 10 µM
[6] = DRUGMATRIX: Leukotriene, BLT (LTB4) radioligand binding (ligand: [3H]LTB4); type: cell membranes, Membrane; settings: u-937; Not Active = under 50% inhibition at 10 µM
[7] = target: Delta-type opioid receptor (Homo sapiens, UniProt P41143); type: cell membranes, HEK293, Membrane; settings: hek293; further: in other assays of this panel Not Active means under 50% inhibition at 10 µM
Chain of Delta-type opioid receptor (P41143 whole entry): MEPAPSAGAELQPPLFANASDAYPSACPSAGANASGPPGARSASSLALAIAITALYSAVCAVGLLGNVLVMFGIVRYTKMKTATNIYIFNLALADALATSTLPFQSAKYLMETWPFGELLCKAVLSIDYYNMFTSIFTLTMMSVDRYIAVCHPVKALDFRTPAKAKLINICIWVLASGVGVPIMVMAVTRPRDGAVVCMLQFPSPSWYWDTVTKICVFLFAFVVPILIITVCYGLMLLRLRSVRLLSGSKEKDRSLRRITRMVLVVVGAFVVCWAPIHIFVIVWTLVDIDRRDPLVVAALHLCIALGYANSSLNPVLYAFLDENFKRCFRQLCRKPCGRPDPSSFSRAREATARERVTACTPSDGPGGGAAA

Mu-type opioid receptor = Mu-type opioid receptor (Homo sapiens, UniProt P35372); assay: DRUGMATRIX: Opiate mu (OP3, MOP) radioligand binding (ligand: [3H] Diprenorphine); type: cell membranes, CHO-K1, Membrane; settings: cho-k1; Not Active = under 50% inhibition at 10 µM
Chain of Mu-type opioid receptor (P35372 whole entry): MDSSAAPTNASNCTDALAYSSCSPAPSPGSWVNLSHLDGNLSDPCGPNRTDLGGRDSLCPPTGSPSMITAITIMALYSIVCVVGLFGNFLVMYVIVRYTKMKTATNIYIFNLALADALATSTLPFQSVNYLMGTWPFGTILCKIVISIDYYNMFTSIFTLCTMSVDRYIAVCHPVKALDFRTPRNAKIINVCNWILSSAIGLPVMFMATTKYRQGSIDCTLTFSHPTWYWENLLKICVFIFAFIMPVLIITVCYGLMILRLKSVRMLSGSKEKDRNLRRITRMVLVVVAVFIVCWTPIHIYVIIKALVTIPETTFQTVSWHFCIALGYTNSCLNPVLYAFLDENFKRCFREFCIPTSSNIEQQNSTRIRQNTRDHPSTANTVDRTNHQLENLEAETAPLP

Acetylcholinesterase = Acetylcholinesterase (Homo sapiens, UniProt P22303); assay: DRUGMATRIX: Acetylcholinesterase enzyme inhibition (substrate: acetylthiocholine); type: cell-based, HEK293; settings: hek293; Not Active = under 50% inhibition at 10 µM
Chain of Acetylcholinesterase (P22303 whole entry): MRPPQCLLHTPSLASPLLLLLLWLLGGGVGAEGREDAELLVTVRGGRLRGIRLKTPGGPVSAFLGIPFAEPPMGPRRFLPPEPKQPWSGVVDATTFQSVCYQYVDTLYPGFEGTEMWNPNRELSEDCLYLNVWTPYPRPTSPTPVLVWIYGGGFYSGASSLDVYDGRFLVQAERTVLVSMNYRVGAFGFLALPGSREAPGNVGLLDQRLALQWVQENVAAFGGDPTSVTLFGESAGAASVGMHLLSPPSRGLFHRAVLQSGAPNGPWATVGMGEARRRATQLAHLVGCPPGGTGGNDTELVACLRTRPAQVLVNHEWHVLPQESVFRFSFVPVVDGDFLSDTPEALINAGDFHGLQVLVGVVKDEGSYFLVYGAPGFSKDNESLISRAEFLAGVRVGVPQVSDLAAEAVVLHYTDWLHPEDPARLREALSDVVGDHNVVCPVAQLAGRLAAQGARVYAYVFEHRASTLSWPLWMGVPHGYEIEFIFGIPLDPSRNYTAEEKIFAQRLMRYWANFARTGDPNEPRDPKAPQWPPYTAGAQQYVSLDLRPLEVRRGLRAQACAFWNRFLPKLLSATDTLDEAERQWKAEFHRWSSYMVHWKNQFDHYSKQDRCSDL

Adenosine receptor A3 = target: T5, Adenosine receptor A3 (Homo sapiens, UniProt P0DMS8); type: cell membranes, CHO-K1, Membrane; settings: cho-k1
T5 sequence (P0DMS8 whole entry): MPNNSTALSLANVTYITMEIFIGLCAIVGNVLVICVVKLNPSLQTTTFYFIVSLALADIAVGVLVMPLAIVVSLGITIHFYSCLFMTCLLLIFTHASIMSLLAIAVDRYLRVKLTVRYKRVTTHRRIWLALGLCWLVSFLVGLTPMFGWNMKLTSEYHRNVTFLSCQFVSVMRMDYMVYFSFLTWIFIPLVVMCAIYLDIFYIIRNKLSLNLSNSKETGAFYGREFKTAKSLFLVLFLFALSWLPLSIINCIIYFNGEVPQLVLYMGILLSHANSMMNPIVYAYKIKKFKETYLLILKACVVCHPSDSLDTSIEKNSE

Cytochrome P450 2D6 = Cytochrome P450 2D6 (Homo sapiens, UniProt P10635); settings: bti-tn-5b1-4; further: in other assays of this panel Not Active means under 50% inhibition at 10 µM
Chain of Cytochrome P450 2D6 (P10635 whole entry): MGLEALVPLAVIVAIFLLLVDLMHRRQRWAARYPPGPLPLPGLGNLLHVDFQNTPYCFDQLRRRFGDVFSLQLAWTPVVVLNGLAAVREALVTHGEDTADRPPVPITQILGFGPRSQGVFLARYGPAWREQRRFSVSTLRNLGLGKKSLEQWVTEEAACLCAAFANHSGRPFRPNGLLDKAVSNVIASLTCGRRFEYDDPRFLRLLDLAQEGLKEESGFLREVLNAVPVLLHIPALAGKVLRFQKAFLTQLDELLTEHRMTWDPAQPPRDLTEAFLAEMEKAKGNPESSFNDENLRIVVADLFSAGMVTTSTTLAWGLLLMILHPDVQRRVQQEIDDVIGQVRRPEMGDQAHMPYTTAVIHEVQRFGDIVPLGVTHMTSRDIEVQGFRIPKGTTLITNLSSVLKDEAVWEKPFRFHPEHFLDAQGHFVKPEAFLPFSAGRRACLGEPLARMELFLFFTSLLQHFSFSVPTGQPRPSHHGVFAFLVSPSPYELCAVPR

Estrogen receptor beta = Estrogen receptor beta (Homo sapiens, UniProt Q92731); settings: sf9; further: in other assays of this panel Not Active means under 50% inhibition at 10 µM
Chain of Estrogen receptor beta (Q92731 whole entry): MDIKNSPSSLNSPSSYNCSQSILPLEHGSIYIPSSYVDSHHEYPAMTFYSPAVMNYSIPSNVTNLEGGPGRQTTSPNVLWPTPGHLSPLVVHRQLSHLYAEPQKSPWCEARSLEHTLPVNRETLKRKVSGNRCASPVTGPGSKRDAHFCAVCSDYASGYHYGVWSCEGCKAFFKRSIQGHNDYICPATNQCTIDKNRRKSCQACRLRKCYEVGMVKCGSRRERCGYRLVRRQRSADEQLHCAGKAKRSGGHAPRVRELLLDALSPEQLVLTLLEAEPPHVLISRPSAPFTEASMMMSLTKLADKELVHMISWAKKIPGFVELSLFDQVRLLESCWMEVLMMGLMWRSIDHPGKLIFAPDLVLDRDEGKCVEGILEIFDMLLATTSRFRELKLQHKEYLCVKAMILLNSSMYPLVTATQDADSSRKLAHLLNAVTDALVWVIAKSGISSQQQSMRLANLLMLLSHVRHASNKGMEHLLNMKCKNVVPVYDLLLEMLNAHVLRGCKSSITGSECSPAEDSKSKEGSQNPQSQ

Chain of Beta-3 adrenergic receptor (P13945 whole entry): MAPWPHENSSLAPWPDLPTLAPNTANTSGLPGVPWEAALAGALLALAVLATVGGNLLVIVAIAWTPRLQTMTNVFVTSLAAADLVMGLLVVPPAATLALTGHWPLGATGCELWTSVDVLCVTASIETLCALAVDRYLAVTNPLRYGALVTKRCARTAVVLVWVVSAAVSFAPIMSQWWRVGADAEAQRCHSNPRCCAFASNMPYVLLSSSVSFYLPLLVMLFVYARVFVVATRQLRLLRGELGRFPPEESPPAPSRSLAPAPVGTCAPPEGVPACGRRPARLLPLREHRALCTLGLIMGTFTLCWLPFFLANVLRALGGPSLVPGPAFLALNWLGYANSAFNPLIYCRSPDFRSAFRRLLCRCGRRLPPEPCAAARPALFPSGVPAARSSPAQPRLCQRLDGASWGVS

O=C1CCc2cc(OCCCCc3nnnn3C3CCCCC3)ccc2N1 [CILOSTAZOL]
Not Active: IC50 [1] | IC50 [2] | IC50 [3] | IC50 [4] | IC50 (D(4) dopamine receptor) | IC50 [5] | Ki [5] | IC50 [6] | Ki [6] | IC50 [7] | IC50 (Mu-type opioid receptor) | IC50 (Acetylcholinesterase) | IC50 (Adenosine receptor A3) | IC50 (Cytochrome P450 2D6) | Ki (Cytochrome P450 2D6) | IC50 (Estrogen receptor beta)

COCc1c(C(C)C)nc(C(C)C)c(/C=C/[C@@H](O)C[C@@H](O)CC(=O)O)c1-c1ccc(F)cc1 [CERIVASTATIN]
Not Active: IC50 [1] | IC50 [2] | IC50 [3] | IC50 [4] | IC50 (D(4) dopamine receptor) | IC50 [5] | Ki [5] | IC50 [6] | Ki [6] | IC50 [7] | IC50 (Mu-type opioid receptor) | IC50 (Acetylcholinesterase) | IC50 (Adenosine receptor A3) | IC50 (Cytochrome P450 2D6) | Ki (Cytochrome P450 2D6) | IC50 (Estrogen receptor beta)

CC1(C)S[C@@H]2[C@H](NC(=O)[C@H](N)c3ccc(O)cc3)C(=O)N2[C@H]1C(=O)O [AMOXICILLIN]
Not Active: IC50 [1] | IC50 [2] | IC50 [3] | IC50 [4] | IC50 (D(4) dopamine receptor) | IC50 [5] | Ki [5] | IC50 [6] | Ki [6] | IC50 [7] | IC50 (Mu-type opioid receptor) | IC50 (Acetylcholinesterase) | IC50 (Adenosine receptor A3) | IC50 (Cytochrome P450 2D6) | Ki (Cytochrome P450 2D6) | IC50 (Estrogen receptor beta)

CCOC(=O)OC(C)OC1=C(C(=O)Nc2ccccn2)N(C)S(=O)(=O)c2ccccc21 (centres undefined) [AMPIROXICAM]
Not Active: IC50 [1] | IC50 [2] | IC50 [3] | IC50 [4] | IC50 (D(4) dopamine receptor) | IC50 [5] | Ki [5] | IC50 [6] | Ki [6] | IC50 [7] | IC50 (Mu-type opioid receptor) | IC50 (Acetylcholinesterase) | IC50 (Adenosine receptor A3) | IC50 (Cytochrome P450 2D6) | Ki (Cytochrome P450 2D6) | IC50 (Estrogen receptor beta)

CN1CCC[C@H]1c1cccnc1 [NICOTINE]
Not Active: IC50 [1] | IC50 [2] | IC50 [3] | IC50 [4] | IC50 (D(4) dopamine receptor) | IC50 [5] | Ki [5] | IC50 [6] | Ki [6] | IC50 [7] | IC50 (Mu-type opioid receptor) | IC50 (Acetylcholinesterase) | IC50 (Adenosine receptor A3) | IC50 (Cytochrome P450 2D6) | Ki (Cytochrome P450 2D6) | IC50 (Estrogen receptor beta)

CC1(C)S[C@@H]2[C@H](NC(=O)[C@H](NC(=O)N3CCNC3=O)c3ccccc3)C(=O)N2[C@H]1C(=O)O [AZLOCILLIN]
Not Active: IC50 [1] | IC50 [2] | IC50 [3] | IC50 [4] | IC50 (D(4) dopamine receptor) | IC50 [5] | Ki [5] | IC50 [6] | Ki [6] | IC50 [7] | IC50 (Mu-type opioid receptor) | IC50 (Acetylcholinesterase) | IC50 (Adenosine receptor A3) | IC50 (Cytochrome P450 2D6) | Ki (Cytochrome P450 2D6) | IC50 (Estrogen receptor beta)

CN(C)CCCC1(c2ccc(F)cc2)OCc2cc(C#N)ccc21 (centres undefined) [CITALOPRAM]
Not Active: IC50 [1] | IC50 [2] | IC50 [3] | IC50 [4] | IC50 (D(4) dopamine receptor) | IC50 [5] | Ki [5] | IC50 [6] | Ki [6] | IC50 [7] | IC50 (Mu-type opioid receptor) | IC50 (Acetylcholinesterase) | IC50 (Adenosine receptor A3) | IC50 (Cytochrome P450 2D6) | Ki (Cytochrome P450 2D6) | IC50 (Estrogen receptor beta)

CCc1cccc2c3c([nH]c12)C(CC)(CC(=O)O)OCC3 (centres undefined) [ETODOLAC]
Not Active: IC50 [1] | IC50 [2] | IC50 [3] | IC50 [4] | IC50 (D(4) dopamine receptor) | IC50 [5] | Ki [5] | IC50 [6] | Ki [6] | IC50 [7] | IC50 (Mu-type opioid receptor) | IC50 (Acetylcholinesterase) | IC50 (Adenosine receptor A3) | IC50 (Cytochrome P450 2D6) | Ki (Cytochrome P450 2D6) | IC50 (Estrogen receptor beta)

Cc1[nH]cnc1CN1CCc2c(c3ccccc3n2C)C1=O [ALOSETRON]
Not Active: IC50 [1] | IC50 [2] | IC50 [3] | IC50 [4] | IC50 (D(4) dopamine receptor) | IC50 [5] | Ki [5] | IC50 [6] | Ki [6] | IC50 [7] | IC50 (Mu-type opioid receptor) | IC50 (Acetylcholinesterase) | IC50 (Adenosine receptor A3) | IC50 (Cytochrome P450 2D6) | Ki (Cytochrome P450 2D6) | IC50 (Estrogen receptor beta)
